In US7253177B2, “Synthesis and antimalarial activity of pyrrolo[3,2-f]quinazoline-1,3-diamine derivatives” (United States of America as Represented by the Secretary of …, priority 2004, dated 2007):
In brackets after ≈: the same amount, converted by molar mass.

Key:
[1] = tested on: Plasmodium falciparum TM91C235 (Southeast Asia Isolates); assay: In vitro antimalarial study, [3H]hypoxanthine uptake, TM91C235 clone; format: cell-based
Method: (§1) B. Antimalarial Activities: (a). In Vitro Antimalarial Studies. The in vitro assays were conducted by using a modification of the semiautomated microdilution technique of Desjardins et al and Chulay et al.. Four P. falciparum malaria parasite clones, from CDC Indochina III (W-2), CDC Sierra Leone I (D-6), Southeast Asia Isolates (TM91C235) and RCS (Isolates from Brazil) were utilized in susceptibility testing. They were derived by direct visualization and micromanipulation from patient isolates. The W-2 clone is susceptible to mefloquine but resistant to chloroquine, sulfadoxine, pyrimethamine, and quinine, whereas the D-6 clone is naturally resistant to mefloquine but susceptible to chloroquine, sulfadoxine, pyrimethamine and quinine. Test compounds were initially dissolved in DMSO and diluted 400 fold in RPMI 1640 culture medium supplemented with 25 mM Hepes, 32 mM NaHCO3 and 10% Albumax I (Gibco BRL, Grand Island, N.Y.). These solutions were subsequently serially diluted two-fold with a Biomek 1000 (Beckman, Fullerton, Calif.) over 11 different concentrations. The parasites were exposed to serial dilutions of each compound for 48 hrs and incubated at 37° C. with 5% O2, 5% CO2 and 90% N2 prior to the addition of [^3H]hypoxanthine. After a further incubation of 18 hrs, parasite DNA was harvested from each microtiter well using Packard Filtermate 196 Harvester (Meriden, Conn.) onto glass filters. Uptake of [^3H]hypoxanthine was measured with a Packard Topcount Scintillation. Concentration-response data were analyzed by a non-linear regression logistic dose response model and the IC50 values (50% inhibitory concentrations) for each compound were calculated. (Table 3). (b). In Vivo Antimalarial Studies against P. berghei in mice: The in vivo efficacy of the artelinic acid analogs were determined in a modified Thompson test. This test measures the survivability of mice and parasitemia clearance following administration of drug on days 3-5 post infection. In brief, 5×10^6 P. berghei-infected erythrocytes (KBG-173 strain) were inoculated intraperitoneally to female mice that weighed 24-30 g. By day three post-infection, parasitemia ranged from 1.0-3.7%. Each drug, dissolved in 5% sodium bicarbonate, was administered PO twice daily from day 3-5 post-infection. Total doses for each drug ranged from 1.5-384 mg/kg with 8 mice included in each dosage group. The percent suppression of parasitemia in the treated mice compared to the untreated controls was determined for each test compound; the SD-50 (fifty percent suppression dose) and SD-90 were determined from a non-linear regression logistic dose response fit at day 6 parasitemia data. Survival of mice to day 60 post-infection was considered a cure (C). Compounds were considered active (A) when the survival time of the treated mice was greater than twice the control mice, i.e., 12-14 day (Table 4-5). (c). Sporozoite Induced Test Each compound is ground with a mortar & pestle and suspended in 0.5% hydroxyethylcellulose—0.1% Tween 80 for compounds to be administered PO and those given SC are suspended in peanut oil. Each compound is prepared at 3 different dose levels as requested by WRAIR. Compounds are administered either PO or SC to mice once 4 hr before inoculation of sporozoites. Four-week-old male CD-1 mice, purchased from Charles River and weighing 16-17 g, are placed 5 per cage and allowed to acclimate for 4 days before being treated and then inoculated with sporozoites. They are fed food and water ad-lib and maintained at 76° F. with 12 hr light and 12 hr darkness. The cages and water bottles are changed biweekly. The mice are weighed on Days 0, 3 and 6 then biweekly when blood films are taken. Plasmodium yoelii (17×) is used to infect mice that will be used to infect the mosquitoes. Mice are given a single dose of test compound 4 hr before being inoculated intraperitoneally with 2.5×10^5 sporozoites of Plasmodium yoelii on Day 0. […]

[2] = tested on: Plasmodium falciparum D-6 clone (CDC Sierra Leone I); assay: In vitro antimalarial study, [3H]hypoxanthine uptake, D-6 clone; format: cell-based
Method: as §1

With CCOC(=O)Nc1nc(NC(=O)OCC)c2c(ccc3c2ccn3Cc2ccccc2C(F)(F)F)n1 [Compound 2b] the “IC50 TM91C235” value ([1]; P. falciparum TM91C235 clone) was greater than 250 ng/mL and the “IC50 D-6” value ([2]; P. falciparum D-6 clone) was 7.9727 ng/mL (≈ 15.9 nM).
Compound CC(=O)N(C(C)=O)c1nc(N(C(C)=O)C(C)=O)c2c(ccc3c2ccn3Cc2ccccc2C(F)(F)F)n1 [Compound 3e, 1,3-Bis(diacetylamino)-7-(2-trifluoromethyl)benzyl-7H-pyrrolo[3,2-f]quinazoline] has an IC50 ([1]; Plasmodium falciparum, read-out: IC50 TM91C235) of 0.0845 ng/mL (≈ 0.161 nM) and an IC50 ([2]; Plasmodium falciparum, read-out: IC50 D-6) of 0.0236 ng/mL (≈ 0.0449 nM).
